Results on eight compounds are retold here after ChEMBL document CHEMBL4196111, “ROR(GMMA)T Modulating Activity for the Treatment of Cancers” (ACS Med Chem Lett, 2018).

The assay has as its target T1, Nuclear receptor ROR-gamma (Mus musculus) (UniProt P51450).
T1 sequence (whole entry): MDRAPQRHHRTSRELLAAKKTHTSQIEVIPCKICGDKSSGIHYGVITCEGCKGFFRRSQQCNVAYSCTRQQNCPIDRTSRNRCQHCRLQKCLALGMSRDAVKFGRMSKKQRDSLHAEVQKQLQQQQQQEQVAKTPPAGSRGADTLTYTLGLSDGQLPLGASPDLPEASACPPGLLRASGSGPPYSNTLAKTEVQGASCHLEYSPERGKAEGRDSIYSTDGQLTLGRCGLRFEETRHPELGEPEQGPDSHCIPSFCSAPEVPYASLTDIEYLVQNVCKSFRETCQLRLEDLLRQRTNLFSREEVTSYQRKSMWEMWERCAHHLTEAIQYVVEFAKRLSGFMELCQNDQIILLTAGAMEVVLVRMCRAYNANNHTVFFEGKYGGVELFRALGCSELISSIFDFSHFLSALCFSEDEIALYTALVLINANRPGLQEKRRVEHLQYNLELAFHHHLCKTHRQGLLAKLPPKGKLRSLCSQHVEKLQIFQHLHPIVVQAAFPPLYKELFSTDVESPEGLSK
Put plainly: Modulation of RORgammat in mouse Th17 cells assessed as […] IL17A production at 3 uM relative to control. The class given is cell-based.
`CS(=O)(=O)c1ccc(CNC(=O)c2ccc3c(n2)CCCN3c2cc(C3CC3)nc(C3CC3)c2)c(C(N)=O)c1`: the Activity was 483%.

With `CS(=O)(=O)c1ccc(C(CO)NC(=O)c2ccc3c(n2)CCCN3c2cc(C3CC3)nc(C3CC3)c2)cc1` (stereo not drawn), the Activity came out at 533%. In the case of `CS(=O)(=O)c1ccc(CNC(=O)c2ccc3c(n2)OCCN3c2cc(C3CC3)nc(C3CC3)c2)cc1`, the Activity came to 373%.

Turning to `CCOC(=O)c1cc(S(=O)(=O)CC)ccc1CNC(=O)c1ccc2c(n1)CCCN2c1cc(C2CC2)nc(C2CC2)c1`, the Activity is 572%. For `CS(=O)(=O)c1ccc(CNC(=O)c2ccc3c(n2)OCCN3c2cc(C3CC3)nc(C3CC3)c2)c(F)c1`, the Activity was determined as 324%. In the case of `CCS(=O)(=O)c1ccc(CNC(=O)c2ccc3c(n2)CCCN3c2cc(C3CC3)nc(C3CC3)c2)nc1` it was 533%; in that of `CS(=O)(=O)c1ccc(CNC(=O)c2ccc3c(n2)CCCN3c2cc(C3CC3)nc(C3CC3)c2)nc1`, 452%. On to `CS(=O)(=O)c1ccc(CNC(=O)c2ccc3c(c2)OCCC3c2cc(C3CC3)nc(C3CC3)c2)nc1` (stereo not drawn), for which the Activity worked out at 443%.
